Test results: patent US20130158043A1, “PAK INHIBITORS FOR THE TREATMENT OF CANCER” (AFRAXIS, INC., priority 2011, published 2013)

Molecular target: T1, p-PAK1(S144) (Rattus norvegicus, UniProt P35465)
T1 construct: endogenous in cells; host or cells: RT4-D6P2T
Experiment: In vitro p-PAK1(S144) cellular HTRF assay
Format: cell-based
Conditions: cell line RT4-D6P2T, read-out: pPAK1(S144) IC50
Excerpt: Compounds for treatment of cancer are subject to in vitro cellular HTRF assay for p-PAK1(S144). The cell line is RT4-D6P2T. The HTRF assay kits are obtained from Cisbio Bioassays, 135 South Road, Bedford, Mass. 01730, USA.

T1 sequence (P35465 whole entry): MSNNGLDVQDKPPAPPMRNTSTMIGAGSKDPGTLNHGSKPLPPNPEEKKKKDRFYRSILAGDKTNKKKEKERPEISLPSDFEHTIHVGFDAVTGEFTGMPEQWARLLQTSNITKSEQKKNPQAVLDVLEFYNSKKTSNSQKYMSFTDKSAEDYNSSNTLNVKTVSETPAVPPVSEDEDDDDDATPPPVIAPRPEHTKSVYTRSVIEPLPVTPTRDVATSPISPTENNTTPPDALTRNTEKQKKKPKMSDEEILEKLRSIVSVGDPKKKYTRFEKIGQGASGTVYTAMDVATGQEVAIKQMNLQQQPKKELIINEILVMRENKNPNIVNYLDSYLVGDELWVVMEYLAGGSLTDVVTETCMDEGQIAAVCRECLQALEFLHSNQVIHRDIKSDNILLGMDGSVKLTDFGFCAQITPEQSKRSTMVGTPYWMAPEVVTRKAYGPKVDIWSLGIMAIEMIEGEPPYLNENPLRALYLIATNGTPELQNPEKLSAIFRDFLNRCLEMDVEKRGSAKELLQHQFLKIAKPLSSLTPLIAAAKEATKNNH

| SMILES | IC50 [nM] |
| --- | --- |
| CN1CCN(c2ccc(Nc3ncc4cc(-c5ccc(-c6cccnc6F)cc5Cl)c(=O)n(C)c4n3)cc2)CC1 | 50 to 500 |
| CCN1CCN(c2ccc(Nc3ncc4cc(-c5ccc(-c6cccnc6)cc5Cl)c(=O)n(CC)c4n3)cc2F)CC1 [drawing 756] | 50 to 500 |
